The values that follow come from patent US20050002983A1, “Devices, methods, and compositions to prevent restenosis” (priority 2003, published 2005).

SMILES strings stand for the structures.

The subject of data set [1] is Human aortic smooth muscle cells (AoSMCs). In words: MTS cell viability/proliferation assay, AoSMC, Days 0-5. Conditions: for dose-response of cell viability (optical density): 10, 100, 1,000 nM, SMCs and HUVECs, Days 0-5.
Experimental: Human aortic smooth muscle cells (“AoSMCs”) and human umbilical vein endothelial cells (“HUVECs”) were plated on 96-well culture plates at a density of about 10,000 cells per square centimeter (10,000 cells/cm^2). The density was determined using growth curves determined by calculating the average absolute optical densities (“ODs”, defined as cellular OD—media only OD) for each plating concentration, for each day, and each cell type (AoSMC or HUVEC) over a five-day time period.
Prior to experiments, the AoSMCs and HUVECS were thawed and independently propagated through two- or three population doublings following Clonetics recommendations and standard cell culture techniques. Clonetics Growth Media and Reagents were used without alteration in all aspects of the study described herein unless otherwise noted. […] SMGM contained: 500 ml SMBM-2 basal media, 5% FBS, and all recommended singlequot growth supplements (provided with SMGM-2 bulletkit) ECGM contained: 500 ml EBM basal media, 2% FBS, and all recommended singlequot growth supplements (provided with EGM-bulletkit).
After initial plating all 96-well plates were placed in a standard 37° C., 5% CO2 incubator. Conditions, including media, were not changed except as detailed below. For consecutive 24-hour time-periods, from Day 1 to Day 5, a single 96-well plate was removed from the incubator.
Cell Preparation Source cells were selected at 70-80% confluency of the second or third population doubling since initial thaw. In order to synchronize cell cycle, source cells were changed from standard growth media to media containing 1% serum twenty-four hours prior to experiment (other growth factors were unchanged). On Day 0 of the experiment, source cells were removed from culture dishes by trypsinization (0.05×1 min.-2 min), quantified by hemacytometer after centrifuge (800 RPM×5 min.), and re-suspended in media to obtain a stock solution of about 25,000 cells/ml.
The drugs were dissolved in dimethylsulfoxide (“DMSO”) solvent to make stock solutions, which were then diluted serially in media to three study concentrations (10 nM; 100 nM; and 1,000 nM). The drugs at three concentration each, solvent without drug at three concentrations, and standard media were added independently to cells on the first day of the study only. Cells in two columns (16 wells) for each cell type on each day will not receive drug and serve as internal controls. Cellular viability and proliferation was assessed using the MTS assay for each cell type at each of the six time points.
On Day 1, six hours after initial plating, the media was removed from all wells by vacuum suction; and with the appropriate growth media-drug solution for each of three drugs at three concentrations described above was added to the wells. […]
In data set [2] the test system is Human aortic smooth muscle cells. In words: IC50 by CellTiter-Glo Luminescent Cell Viability Assay, smooth muscle cells. The format is cell-based. How it is done:
The cells were seeded in duplicate, in opaque-walled 96-well microtiter plates at a cell density of 3,000 cells per well and allowed to attach overnight. Serial dilutions of each drug were added, and the cells were incubated for 96 hours. The IC50 values for the drugs was determined using the CellTiter-Glo Luminescent Cell Viability Assay (Promega, Madison, Wis.), which correlates with the number of live cells.

The nature of data set [3]: Release kinetics of epothilone D from polymer matrices. It is filed as physicochemical.
Data set [4] is described as follows: Solubility in PBS. It is filed as physicochemical.
For data set [5], the system named is endothelial cells. The experiment in a line: Cytotoxicity IC50 against endothelial cells. The format is cell-based.

For `CO[C@H]1/C=C\C=C(/C)C(=O)NC2=CC(=O)C(NCCN(C)C)=C(C[C@@H](C)C[C@H](OC)[C@H](O)[C@@H](C)/C=C(\C)[C@@H]1OC(N)=O)C2=O` [17-DMAG, 17-[2-(dimethylamino)ethylamino]-17-desmethoxygeldanamycin], the “dose-response of cell viability (optical density)” value (from here on “dose-response of cell viability”) in data set [1] was “dose-response characteristics consistent with utility to reduce or prevent restenosis”. Also, in data set [1] (AoSMC vs HUVEC viability, 10-1,000 nM), the “selectivity for SMCs over ECs” value is “relative selectivity for SMCs over ECs”.
In turn, `COC1=C2C[C@@H](C)C[C@H](OC)[C@H](O)[C@@H](C)/C=C(\C)[C@H](OC(N)=O)[C@@H](OC)/C=C\C=C(/C)C(=O)NC(=CC1=O)C2=O` [geldanamycin, reference compound] displayed an IC50 in data set [2] (Homo sapiens) of roughly 0.9 nM.
`C/C1=C/C[C@@H](/C(C)=C/c2csc(C)n2)OC(=O)C[C@H](O)C(C)(C)C(=O)[C@H](C)[C@@H](O)[C@@H](C)CCC1` [epothilone D]: the “dose-response of cell viability” value in data set [1] is “dose-response characteristics consistent with utility to reduce or prevent restenosis”. Moreover, the “release rate from polymer matrix” value is “approximately 6 micrograms/day” in data set [3] (from poly(lactide)) and 1.58 micrograms/day in data set [3] (from polyurethane).
As to `C=CCNC1=C2C[C@@H](C)C[C@H](OC)[C@H](O)[C@@H](C)/C=C(\C)[C@H](OC(N)=O)[C@@H](OC)/C=C\C=C(/C)C(=O)NC(=CC1=O)C2=O` [17-AAG, 17-allylamino-17-desmethoxygeldanamycin], the “dose-response of cell viability” value in data set [1] is reported as “dose-response characteristics consistent with utility to reduce or prevent restenosis”. Moreover, in data set [4], the solubility came to 60 micrograms/mL. In addition, the IC50 in data set [2] (smooth muscle cells) is roughly 10 nM; in data set [5], 350 nM.
